Measurements as given in article PMC11593036, “Comparative Characterization of Three Homologous Glutathione Transferases from the Weed Lolium perenne” (Foods, 2024).
Where a chain is given by its changes, count along the chain named.

Legend:
Experiment in all cases: steady-state kinetics
Type in all cases: biochemical
LpGSTU25 [1] = molecular target: T1, LpGSTU25 (Lolium perenne, UniProt A0A165FYR3, F215H); settings: co-substrate GSH; read-out: Km (mM) (CDNB)
T1 construct: gene GST; full-length cDNA from leaf mRNA in pEXP5-CT/TOPO, E. coli BL21(DE3), GSH-Sepharose; reverse primer carries stop codon (no C-terminal tag); primer-encoded N-terminus MASEKSS
T1 sequence (A0A165FYR3 1-226 F215H): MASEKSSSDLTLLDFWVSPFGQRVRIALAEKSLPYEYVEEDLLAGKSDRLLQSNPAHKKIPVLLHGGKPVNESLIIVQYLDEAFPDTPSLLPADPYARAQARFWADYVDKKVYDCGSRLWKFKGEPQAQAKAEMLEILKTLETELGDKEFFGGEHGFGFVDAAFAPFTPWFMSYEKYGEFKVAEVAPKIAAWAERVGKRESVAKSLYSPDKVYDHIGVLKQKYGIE
Source text: (§1) steady-state kinetics on LpGSTU25

LpGSTU25 [2] = molecular target: T2, LpGSTU25 (Lolium perenne, UniProt A0A165FYR3, F215V); settings: co-substrate GSH; read-out: Km (mM) (CDNB)
T2 construct: gene GST; full-length cDNA from leaf mRNA in pEXP5-CT/TOPO, E. coli BL21(DE3), GSH-Sepharose; reverse primer carries stop codon (no C-terminal tag); primer-encoded N-terminus MASEKSS
T2 sequence (A0A165FYR3 1-226 F215V): T1 sequence (A0A165FYR3 1-226 F215H) with H215V
Source text: as §1

LpGSTU25 [3] = molecular target: T3, LpGSTU25 (Lolium perenne, UniProt A0A165FYR3, F215S); settings: co-substrate GSH; read-out: Km (mM) (CDNB)
T3 construct: gene GST; full-length cDNA from leaf mRNA in pEXP5-CT/TOPO, E. coli BL21(DE3), GSH-Sepharose; reverse primer carries stop codon (no C-terminal tag); primer-encoded N-terminus MASEKSS
T3 sequence (A0A165FYR3 1-226 F215S): T1 sequence (A0A165FYR3 1-226 F215H) with H215S
Source text: as §1

LpGSTU25 [4] = molecular target: T4, LpGSTU25 (Lolium perenne, UniProt A0A165FYR3, F215R); settings: co-substrate GSH; read-out: Km (mM) (CDNB)
T4 construct: gene GST; full-length cDNA from leaf mRNA in pEXP5-CT/TOPO, E. coli BL21(DE3), GSH-Sepharose; reverse primer carries stop codon (no C-terminal tag); primer-encoded N-terminus MASEKSS
T4 sequence (A0A165FYR3 1-226 F215R): T1 sequence (A0A165FYR3 1-226 F215H) with H215R
Source text: as §1

LpGSTU25 [5] = molecular target: T5, LpGSTU25 (Lolium perenne, UniProt A0A165FYR3, F215T); settings: co-substrate GSH; read-out: Km (mM) (CDNB)
T5 construct: gene GST; full-length cDNA from leaf mRNA in pEXP5-CT/TOPO, E. coli BL21(DE3), GSH-Sepharose; reverse primer carries stop codon (no C-terminal tag); primer-encoded N-terminus MASEKSS
T5 sequence (A0A165FYR3 1-226 F215T): T1 sequence (A0A165FYR3 1-226 F215H) with H215T
Source text: as §1

LpGSTU25 [6] = molecular target: T6, LpGSTU25 (Lolium perenne, UniProt A0A165FYR3, F215L); settings: co-substrate GSH; read-out: Km (mM) (CDNB)
T6 construct: gene GST; full-length cDNA from leaf mRNA in pEXP5-CT/TOPO, E. coli BL21(DE3), GSH-Sepharose; reverse primer carries stop codon (no C-terminal tag); primer-encoded N-terminus MASEKSS
T6 sequence (A0A165FYR3 1-226 F215L): T1 sequence (A0A165FYR3 1-226 F215H) with H215L
Source text: as §1

LpGSTU25 [7] = molecular target: T7, LpGSTU25 (Lolium perenne, UniProt A0A165FYR3); settings: co-substrate GSH; read-out: Km (mM) (CDNB)
T7 construct: gene GST; full-length cDNA from leaf mRNA in pEXP5-CT/TOPO, E. coli BL21(DE3), GSH-Sepharose; reverse primer carries stop codon (no C-terminal tag); primer-encoded N-terminus MASEKSS
T7 sequence (A0A165FYR3 1-226): T1 sequence (A0A165FYR3 1-226 F215H) with H215F
Source text: as §1

LpGSTU25 [8] = molecular target: T8, LpGSTU25 (Lolium perenne, UniProt A0A165FYR3, F215K); settings: co-substrate GSH; read-out: Km (mM) (CDNB)
T8 construct: gene GST; full-length cDNA from leaf mRNA in pEXP5-CT/TOPO, E. coli BL21(DE3), GSH-Sepharose; reverse primer carries stop codon (no C-terminal tag); primer-encoded N-terminus MASEKSS
T8 sequence (A0A165FYR3 1-226 F215K): T1 sequence (A0A165FYR3 1-226 F215H) with H215K
Source text: as §1

LpGSTU25 [9] = molecular target: T9, LpGSTU25 (Lolium perenne, UniProt A0A165FYR3, F215Y); settings: co-substrate GSH; read-out: Km (mM) (CDNB)
T9 construct: gene GST; full-length cDNA from leaf mRNA in pEXP5-CT/TOPO, E. coli BL21(DE3), GSH-Sepharose; reverse primer carries stop codon (no C-terminal tag); primer-encoded N-terminus MASEKSS
T9 sequence (A0A165FYR3 1-226 F215Y): T1 sequence (A0A165FYR3 1-226 F215H) with H215Y
Source text: as §1

LpGSTU2 = molecular target: T10, LpGSTU2 (Lolium perenne, UniProt A0A165FYT0); settings: co-substrate GSH; read-out: Km (mM) (CDNB)
T10 construct: gene GST; full-length cDNA from leaf mRNA in pEXP5-CT/TOPO, E. coli BL21(DE3), GSH-Sepharose; reverse primer carries stop codon (no C-terminal tag); primer-encoded N-terminus MASEKSS
T10 sequence (A0A165FYT0 1-226): T1 sequence (A0A165FYR3 1-226 F215H) with S32N, D48E, A56V, A93S, S117T, F122L, K131R, Q221K
Source text: steady-state kinetics on LpGSTU2

LpGSTU5 = molecular target: T11, LpGSTU5 (Lolium perenne, UniProt A0A165FYU2); settings: co-substrate GSH; sigmoid, positive cooperativity between the two H-sites; read-out: Km (mM) (CDNB)
T11 construct: gene GST; full-length cDNA from leaf mRNA in pEXP5-CT/TOPO, E. coli BL21(DE3), GSH-Sepharose; reverse primer carries stop codon (no C-terminal tag); primer-encoded N-terminus MASEKSS
T11 sequence (A0A165FYU2 1-226): T1 sequence (A0A165FYR3 1-226 F215H) with A56V, F122L, K131R, Q221K
Source text: steady-state kinetics on LpGSTU5

SMILES: O=[N+]([O-])c1ccc(Cl)c([N+](=O)[O-])c1 [CDNB]
- Km (LpGSTU25 [1]): 0.68 ± 0.08 mM
- Km (LpGSTU25 [2]): 0.29 ± 0.02 mM
- Km (LpGSTU25 [3]): 0.33 ± 0.03 mM
- Km (LpGSTU25 [4]): 0.92 ± 0.32 mM
- Km (LpGSTU25 [5]): 0.31 ± 0.03 mM
- Km (LpGSTU25 [6]): 0.25 ± 0.02 mM
- Km (LpGSTU25 [7]): 0.28 ± 0.03 mM
- Km (LpGSTU25 [8]): 0.77 ± 0.07 mM
- Km (LpGSTU25 [9]): 0.91 ± 0.12 mM
- Km (LpGSTU2): 0.47 ± 0.03 mM
- Km (LpGSTU5): 0.1 ± 0.04 mM
